Data published in patent publication EP0306597B2, “Antiviral nucleosides” (THE WELLCOME FOUNDATION LIMITED, priority 1985, dated 1986).

Assays:
[1] = tested on: Rauscher Murine Leukaemia Virus; assay: Mouse model of retrovirus-induced malignancy (splenomegaly); type: in vivo
[2] = tested on: varicella zoster virus (VZV); details: De Clerq et al.; cited from earlier work
AIDV [3] = assay: AIDV infection of H9 human lymphoblastoid cell-line; type: cell-based; details: concentrations as low as; up to 20 hours after infection
vaccinia = details: De Clerq et al.; cited from earlier work
AIDV [4] = type: cell-based
AIDV [5] = assay: AIDV infection of U937 cells, PHA-stimulated white blood cells and cultured peripheral blood lymphocytes; type: cell-based
[6] = tested on: Friend Leukaemia Virus (FLV); details: cited from earlier work
HTLV-I = assay: In vitro replication of HTLV-I; type: cell-based; details: concentrations as low as
HSVI = details: De Clerq et al.; cited from earlier work
AIDV [7] = type: cell-based; details: same cell-line transformed by HTLV-I and super-infected with AIDV
[8] = tested on: avian myeloblastosis virus and Moloney murine leukaemia virus; assay: Chain termination of reverse transcription; type: biochemical; details: evidenced by effect on avian myeloblastosis virus and Moloney murine leukaemia virus
human DNA polymerase = assay: Effect on human DNA polymerase activity; type: biochemical; details: in vitro
[9] = molecular target: T1, AIDV reverse transcriptase (Human immunodeficiency virus type 1 group M subtype B, UniProt P04585); assay: Inhibition of purified AIDV reverse transcriptase; type: biochemical; details: purified enzyme; for activity of AIDV reverse transcriptase: in vitro
T1 construct: purified AIDV reverse transcriptase
Excerpt: This property is both unusual and valuable for the treatment and prophylaxis of CNS infections caused by human retroviruses.

SMILES	splenomegaly caused by intravenously administered Rauscher Murine Leukaemia Virus [1]	activity against varicella zoster virus (VZV) [2]	concentration effectively preventing infection of the H9 human lymphoblastoid cell-line by AIDV (AIDV [3]) [µg/mL]	activity against vaccinia (vaccinia)	decrease in cells (AIDV [4])	AIDV infection of PHA-stimulated white blood cells (AIDV [5]; PHA-stimulated white blood cells)	AIDV infection of U937 human lymphoblastoid cells (AIDV [5]; U937 human lymphoblastoid cells)	AIDV infection of cultured peripheral blood lymphocytes (AIDV [5]; cultured peripheral blood lymphocytes)	conversion in vivo by cellular enzymes	cellular toxicity [6]	formation of A-type particles of FLV complex ([6]; in vitro, Krieg et al.)	release of C-type particles of FLV complex ([6]; in vitro, Krieg et al.)	concentration inhibiting the in vitro replication of HTLV-I (HTLV-I) [µg/mL]	activity against HSVI (HSVI)	Cytopathic effects (AIDV [7])	chain termination in the reverse transcription of AIDV [8]	effect on human DNA polymerase activity (human DNA polymerase)	mechanism of inhibition of AIDV reverse transcriptase [9]	activity of AIDV reverse transcriptase [9]	activity of AIDV reverse transcriptase ([9]; […])
Cc1cn([C@H]2C[C@H](N=[N+]=[N-])[C@@H](CO)O2)c(=O)[nH]c1=O	prevented	no appreciable activity	0.013	no appreciable activity	no decrease	prevented at similarly low concentrations	prevented at similarly low concentrations	prevented at similarly low concentrations	converted in vivo, by the action of cellular enzymes into the 5'-monophosphate	lack of cellular toxicity	increased	affected	0.8	no appreciable activity	completely blocked					
Cc1cn([C@H]2C[C@H](N=[N+]=[N-])[C@@H](COP(=O)(O)OP(=O)(O)OP(=O)(O)O)O2)c(=O)[nH]c1=O [3'-Azido-3'-deoxythymidine-5'-triphosphate]																effective chain terminator	negligible effect	competitive inhibition	blocked	inhibits
Cc1cn([C@H]2C[C@H](N=[N+]=[N-])[C@@H](COP(=O)(O)O)O2)c(=O)[nH]c1=O [Example 13]									further phosphorylated by other enzymes to form the triphosphate via the diphosphate											
